Reference: US20240122180A1, “FUNGICIDAL HALOMETHYL KETONES AND HYDRATES AND THEIR MIXTURES” (FMC Corporation, priority 2020, published 2024)
Marks after values point to notes of the source that are not given here.

Columns and labels:
Assay type in all cases: in vivo
[1] = tested on: Uncinula necator (the causal agent of grape powdery mildew); experiment: Test C: preventive spray on grape seedlings, disease rating (100 = 100% control; * 50 ppm, ** 10 ppm, *** 250 ppm); conditions: 100 = 100% disease control
In short: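 Grape seedlings sprayed to run-off with compound suspended in acetone/water (50/50) with 250 ppm PEG400, then inoculated next day with Uncinula necator spores. Kept at 20 °C for 12 days before disease rating, where 100 is full control and 0 none, relative to untreated controls.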

[2] = tested on: Blumeria graminis f. sp. tritici (the causal agent of wheat powdery mildew); experiment: Test E: preventive spray on wheat seedlings, visual disease rating (100 = 100% control; * 50 ppm, ** 10 ppm, *** 250 ppm); conditions: 250 ppm test suspension, 100 = 100% disease control
In short: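 Test suspension (3% acetone, acetone/water 50/50, 250 ppm PEG400) sprayed to run-off on wheat seedlings; inoculated next day with powdery mildew spore dust and kept 8 days at 20 °C. Visual rating, 100 = full and 0 = no control relative to untreated.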

[3] = tested on: Puccinia recondita f. sp. tritici (the causal agent of wheat leaf rust); experiment: Test B: preventive spray on wheat seedlings, disease rating (100 = 100% control; * 50 ppm, ** 10 ppm, *** 250 ppm); conditions: 100 = 100% disease control
In short: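 Preventive test: Puccinia recondita f. sp. tritici spores were inoculated one day after run-off spraying of wheat seedlings with test suspension (acetone/water 50/50, 250 ppm PEG400). After 24 h in saturated air and 6 days in a growth chamber, both at 20° C, control was scored 0–100 versus untreated plants.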

[4] = tested on: Zymoseptoria tritici (the causal agent of wheat leaf blotch); experiment: Test D: preventive spray on wheat seedlings, disease rating (100 = 100% control; * 50 ppm, ** 10 ppm, *** 250 ppm); conditions: 250 ppm test suspension, 100 = 100% disease control
In short: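 Compounds first dissolved in acetone (3% of final volume), then suspended in 50/50 acetone/water with 250 ppm PEG400 and sprayed to run-off on wheat seedlings; Z. tritici spores inoculated next day. Incubated saturated at 24° C. 48 h, then 20° C. 17 days; disease control rated 0–100 versus controls.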

[5] = tested on: Phakopsora pachyrhizi (the causal agent of Asian soybean rust); experiment: Test A: preventive spray on soybean seedlings, visual disease rating (100 = 100% control; * 50 ppm, ** 10 ppm, *** 250 ppm); conditions: 100 = 100% disease control
In short: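 Preventive test: one day after spraying compound (acetone/water suspension, 250 ppm PEG400), seedlings received rust spore inoculum, 24 h in saturated air then 8 days in growth chamber, both at 22 °C. Disease control scored visually, 100 = complete, 0 = none, relative to untreated controls.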

[6] = 250 ppm test suspension, 0 = no control
[7] = 10 ppm test suspension, 0 = no control
[8] = 50 ppm test suspension, 0 = no control
[9] = 250 ppm test suspension, grape seedlings
[10] = 10 ppm test suspension, wheat seedlings
[11] = 10 ppm test suspension, soybean seedlings
[12] = 250 ppm test suspension, wheat seedlings
[13] = 250 ppm test suspension, soybean seedlings

`CCO/C(=C\Oc1ccc(Cn2cc(C(=O)NC3CC3)cn2)cc1)C(F)(F)F` [compound 413] was tested, and the “Test C disease control rating” value [1, 6] was 61*** %, the “Test E disease control rating” value ([2]; 0 = no control) was 35*** % and the “Test B disease control rating” value [3, 7] was 0%. The “Test D disease control rating” value ([4]; 0 = no control) was 90*** % and the “Test A disease control rating” value [5, 7] was 0%.

In the case of `CCOC(=O)c1cnn(Cc2ccc(O/C=C(\OCC)C(F)(F)F)c(Cl)c2)c1` [compound 458], the “Test C disease control rating” value [1, 6] is reported as 25*** %, the “Test E disease control rating” value ([2]; 0 = no control) is reported as 94*** % and the “Test B disease control rating” value [3, 7] is reported as 0%. The “Test D disease control rating” value ([4]; 0 = no control) was 41*** % and the “Test A disease control rating” value [5, 7] was 100%.

With `CCO/C(=C\Oc1cccc(Cn2cc(C(=O)NCC3CC3)cn2)c1)C(F)(F)F` [compound 393] the “Test C disease control rating” value [1, 6] was 63*** %, the “Test E disease control rating” value ([2]; 0 = no control) was 0*** % and the “Test B disease control rating” value [3, 8] was 0%. For the same compound, the “Test D disease control rating” value ([4]; 0 = no control) was 69*** % and the “Test A disease control rating” value [5, 8] was 38%.

For `CCOC(=O)c1cnn(Cc2c(F)c(F)c(O/C=C(\OCC)C(F)(F)F)c(F)c2F)c1` [compound 464], the “Test C disease control rating” value [1, 6] was 73*** %, the “Test E disease control rating” value ([2]; 0 = no control) was 99*** % and the “Test B disease control rating” value [3, 8] was 0%. For the same compound, the “Test D disease control rating” value ([4]; 0 = no control) was 4*** % and the “Test A disease control rating” value [5, 8] was 100%.

With `CCOC(=O)c1cnn(Cc2ccc(O/C=C(\OCC)C(F)(F)F)cc2F)c1` [compound 375] the “Test C disease control rating” value [1, 6] was 66*** %, the “Test E disease control rating” value ([2]; 0 = no control) was 99*** % and the “Test B disease control rating” value [3, 8] was 0%. For the same compound, the “Test D disease control rating” value ([4]; 0 = no control) was 95*** % and the “Test A disease control rating” value [5, 8] was 100%.

For `CCO/C(=C\Oc1ccc(Cn2cc(C(=O)OCCC#N)cn2)cc1)C(F)(F)F` [compound 245], the “Test C disease control rating” value [1, 9] was 24*** %, the “Test E disease control rating” value ([2]; wheat seedlings) was 76*** % and the “Test B disease control rating” value [3, 10] was 0%. The “Test D disease control rating” value ([4]; wheat seedlings) was 18*** % and the “Test A disease control rating” value [5, 11] was 100%.

For `CCOC(=O)c1cnn(Cc2ccc(O/C=C(\OCC)C(F)(F)F)c(C)c2)c1` [compound 410], the “Test C disease control rating” value [1, 6] was 88*** %, the “Test E disease control rating” value ([2]; 0 = no control) was 13*** % and the “Test B disease control rating” value [3, 7] was 0%. For the same compound, the “Test D disease control rating” value ([4]; 0 = no control) was 11*** % and the “Test A disease control rating” value [5, 7] was 100%.

With `CCOC(=O)c1cnn(Cc2ccc(C(O)CC(O)(O)C(F)(F)F)cc2)c1` (stereo not shown) [compound 51] the “Test C disease control rating” value [1, 9] was 81*** %, the “Test E disease control rating” value ([2]; wheat seedlings) was 0*** % and the “Test B disease control rating” value [3, 10] was 0%. The “Test D disease control rating” value ([4]; wheat seedlings) was 3*** % and the “Test A disease control rating” value [5, 11] was 0%.

For `CC(=O)c1ccc(OCC(O)(O)C(F)(F)F)cc1` [compound 80], the “Test C disease control rating” value ([1]; 50 ppm test suspension, grape seedlings) was 0%, the “Test E disease control rating” value ([2]; wheat seedlings) was 99*** % and the “Test B disease control rating” value ([3]; 50 ppm test suspension, wheat seedlings) was 100%. For the same compound, the “Test D disease control rating” value ([4]; wheat seedlings) was 96*** % and the “Test A disease control rating” value ([5]; 50 ppm test suspension, soybean seedlings) was 99%.

With `CCO/C(=C\Oc1ccc(Cc2ncc(C(=O)NCC3CC3)o2)cc1)C(F)(F)F` [compound 258] the “Test C disease control rating” value [1, 6] was 64*** %, the “Test E disease control rating” value ([2]; 0 = no control) was 53*** % and the “Test B disease control rating” value [3, 7] was 0%. The “Test D disease control rating” value ([4]; 0 = no control) was 13*** % and the “Test A disease control rating” value [5, 7] was 96%.

With `O=C(NCC1CC1)c1cnc(Cc2ccc(OCC(O)(O)C(F)(F)F)cc2)s1` [compound 256] the “Test C disease control rating” value [1, 9] was 15*** %, the “Test E disease control rating” value ([2]; wheat seedlings) was 82*** % and the “Test B disease control rating” value [3, 10] was 0%. The “Test D disease control rating” value ([4]; wheat seedlings) was 95*** % and the “Test A disease control rating” value [5, 11] was 73%.

With `CCO/C(=C\Oc1ccc(Cc2ncc(C(=O)NCC(F)F)o2)cc1)C(F)(F)F` [compound 255] the “Test C disease control rating” value [1, 9] was 93*** %, the “Test E disease control rating” value ([2]; wheat seedlings) was 64*** % and the “Test B disease control rating” value [3, 10] was 0%. The “Test D disease control rating” value ([4]; wheat seedlings) was 60*** % and the “Test A disease control rating” value [5, 11] was 89%.

For `CCO/C(=C\Oc1ccc(Cn2cc(C(=O)OCCOC)cn2)cc1)C(F)(F)F` [compound 222], the “Test C disease control rating” value [1, 9] was 38*** %, the “Test E disease control rating” value ([2]; wheat seedlings) was 90*** % and the “Test B disease control rating” value [3, 10] was 0%. For the same compound, the “Test D disease control rating” value ([4]; wheat seedlings) was 17*** % and the “Test A disease control rating” value [5, 11] was 100%.

`CCOC(=COc1ccc(C2CN(C(C)=O)C2)cc1)C(F)(F)F` [compound 373] was tested, and the “Test C disease control rating” value [1, 6] was 56*** %, the “Test E disease control rating” value ([2]; 0 = no control) was 98*** % and the “Test B disease control rating” value [3, 8] was 0%. For the same compound, the “Test D disease control rating” value ([4]; 0 = no control) was 99*** % and the “Test A disease control rating” value [5, 8] was 81%.

In the case of `C=CCOC(=O)c1cnn(Cc2ccc(O/C=C(\OCC)C(F)(F)F)cc2)c1` [compound 246], the “Test C disease control rating” value [1, 9] is reported as 85*** %, the “Test E disease control rating” value ([2]; wheat seedlings) is reported as 90*** % and the “Test B disease control rating” value [3, 10] is reported as 0%. The “Test D disease control rating” value ([4]; wheat seedlings) was 12*** % and the “Test A disease control rating” value [5, 11] was 100%.

With `CCO/C(=C\Oc1cccc(Cn2cc(C(=O)NCC(F)(F)F)cn2)c1)C(F)(F)F` [compound 401] the “Test C disease control rating” value [1, 6] was 35*** %, the “Test E disease control rating” value ([2]; 0 = no control) was 0*** % and the “Test B disease control rating” value [3, 7] was 0%. For the same compound, the “Test D disease control rating” value ([4]; 0 = no control) was 0*** % and the “Test A disease control rating” value [5, 7] was 0%.

`N#Cc1ccc(OCC2(C(F)(F)F)OCCO2)cc1` [compound 98] was tested, and the “Test C disease control rating” value [1, 9] was 31%, the “Test E disease control rating” value ([2]; wheat seedlings) was 0% and the “Test B disease control rating” value [3, 12] was 100%. For the same compound, the “Test D disease control rating” value ([4]; wheat seedlings) was 77% and the “Test A disease control rating” value [5, 13] was 100%.

For `O=C(NCC1CC1)c1cnc(Cc2ccc(OCC3(C(F)(F)F)OCCO3)cc2)s1` [compound 259], the “Test C disease control rating” value [1, 6] was 31*** %, the “Test E disease control rating” value ([2]; 0 = no control) was 83*** % and the “Test B disease control rating” value [3, 7] was 0%. The “Test D disease control rating” value ([4]; 0 = no control) was 88*** % and the “Test A disease control rating” value [5, 7] was 25%.

In the case of `CCOC(=O)c1cnn(Cc2ccc(SCC3(C(F)(F)F)OCCO3)cc2)c1` [compound 115], the “Test C disease control rating” value [1, 9] is reported as 58%, the “Test E disease control rating” value ([2]; wheat seedlings) is reported as 56% and the “Test B disease control rating” value [3, 12] is reported as 0%. The “Test D disease control rating” value ([4]; wheat seedlings) was 19% and the “Test A disease control rating” value [5, 13] was 0%.

Compound `CCOC(=O)c1cnn(CSc2ccc(O/C=C(\OCC)C(F)(F)F)cc2)c1` [compound 457] has a pest or weed control at 250 ppm ([1]; Erysiphe necator, 250 ppm test suspension, 0 = no control) of 73%, a pest or weed control at 250 ppm ([2]; Blumeria graminis, 0 = no control) of 0% and a pest or weed control at 10 ppm ([3]; Puccinia recondita, 10 ppm test suspension, 0 = no control) of 0%. The pest or weed control at 250 ppm ([4]; Zymoseptoria tritici, 0 = no control) was 7% and the pest or weed control at 10 ppm ([5]; Phakopsora pachyrhizi, 10 ppm test suspension, 0 = no control) was 89%.
